Reference: patent publication US20230159467A1, “NOVEL COMPOUNDS USEFUL IN THE TREATMENT AND/OR PREVENTION OF A DISEASE, DISORDER OR CONDITION ASSOCIATED WITH ANGIOTENSIN II” (Vicore Pharma AB, priority 2020, published 2023)

Key:
human AT1R = molecular target: T1, human AT1R (Homo sapiens, UniProt P30556); assay type: binding; settings: HEK-293 cell membranes
T1 construct: host or cells: HEK-293
T1 sequence (P30556 1-359): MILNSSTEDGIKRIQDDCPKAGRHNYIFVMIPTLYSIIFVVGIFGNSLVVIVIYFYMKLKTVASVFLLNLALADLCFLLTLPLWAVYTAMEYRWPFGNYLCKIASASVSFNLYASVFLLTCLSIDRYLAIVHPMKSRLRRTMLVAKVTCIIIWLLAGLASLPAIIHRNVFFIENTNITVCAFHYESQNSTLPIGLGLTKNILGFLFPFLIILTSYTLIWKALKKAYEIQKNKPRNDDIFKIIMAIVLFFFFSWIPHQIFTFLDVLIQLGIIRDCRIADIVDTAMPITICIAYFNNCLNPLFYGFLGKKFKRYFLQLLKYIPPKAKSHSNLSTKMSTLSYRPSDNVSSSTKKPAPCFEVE

human AT2R = molecular target: T2, human AT2R (Homo sapiens, UniProt P50052); assay type: binding; settings: HEK-293 cell membranes
T2 construct: host or cells: HEK-293
T2 sequence (P50052 1-363): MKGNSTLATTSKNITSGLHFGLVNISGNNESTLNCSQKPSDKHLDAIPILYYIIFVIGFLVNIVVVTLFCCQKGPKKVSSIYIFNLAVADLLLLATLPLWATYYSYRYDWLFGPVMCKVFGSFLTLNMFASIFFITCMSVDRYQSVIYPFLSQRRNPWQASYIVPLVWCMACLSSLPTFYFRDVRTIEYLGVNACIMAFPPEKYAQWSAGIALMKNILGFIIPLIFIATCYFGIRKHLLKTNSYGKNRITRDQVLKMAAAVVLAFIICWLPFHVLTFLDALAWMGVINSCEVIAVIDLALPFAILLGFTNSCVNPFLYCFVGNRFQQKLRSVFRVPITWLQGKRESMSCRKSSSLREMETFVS

[1] = Stability in human liver microsomes; assay type: in vitro ADME; settings: half-life
Method: Stability in liver microsomes. Human, mouse and rat liver microsomes were used to assess the metabolic stability for the compounds. Metabolic stability was determined in 0.5 mg/mL human, mouse or rat liver microsomes at a compound concentration of 1 μM in 100 mM potassium phosphate buffer (pH 7.4) in a total incubation volume of 500 μL by Eurofins. The assay matrix was: human liver microsomes: mixed gender and pool of 50, rat liver microsomes: male, Sprague-Dawley, pool of 100 or more and mouse liver microsomes: male,CD-1, pool of 250 or more. Final microsomal protein concentration: 0.1mg/mL. The test concentration was 0.1 μM with 0.01% DMSO, 0.25% acetonitrile and 0.25% methanol by default. […] The reaction was initiated by adding NADPH-generating system and was incubated for 0, 15, 30, 45, and 60 min. The reaction was stopped by transferring the incubation mixture to acetonitrile/methanol. Samples were then mixed and centrifuged. Four reference compounds were tested in each assay. Propranolol and imipramine are relatively stable, whereas verapamil and terfenadine are readily metabolized inhuman liver microsomes. Samples were analyzed by HPLC-MS/MS using selected reaction monitoring. The HPLC system consisted of a binary LC pump with autosampler, a C-18 column, and a gradient. Peak areas corresponding to the test compound were recorded. The compound remaining was calculated by comparing the peak area at each time point to time zero. The half-life was calculated from the slope of the initial linear range of the logarithmic curve of compound remaining (%) vs. time, assuming first order kinetics. In addition, the intrinsic clearance (Clint) was calculated.^19,20

Compound | Ki (human AT1R) [µM] | Ki (human AT2R) [µM] | Stability in liver microsomes HLM [1] [min]
CCCCOC(=O)NS(=O)(=O)c1ccc(CC(C)C)cc1-c1ccc(Cn2ccnc2C(C)(C)C)cc1 [Example 2A, Butyl ((4′-((2-(tert-butyl)-1H-imidazol-1-yl)methyl)-5-isobutyl-[1,1′-biphenyl]-2-yl)sulfonyl)carbamate] | ~10 | 0.015 | –
CCCc1nc(-c2ccc(Cn3ccnc3C(C)(C)C)cc2)c(S(=O)(=O)NC(=O)OC)s1 [Example 5, Methyl ((4-(4-((2-(tert-butyl)-1H-imidazol-1-yl)methyl)phenyl)-2-propylthiazol-5-yl)sulfonyl)carbamate] | ~1 | 0.19 | –
CCCCOC(=O)NS(=O)(=O)c1sc(CCC)nc1-c1ccc(Cn2ccnc2C(C)(C)C)cc1 [Example 6, Butyl ((4-(4-((2-(tert-butyl)-1H-imidazol-1-yl)methyl)phenyl)-2-propylthiazol-5-yl)sulfonyl) carbamate] | ~1 | 0.071 | –
CCCCOC(=O)NS(=O)(=O)c1sc(CCC)nc1-c1ccc(Cn2ccnc2C(C)C)cc1 [Example 15, Butyl ((4-(4-((2-isopropyl-1H-imidazol-1-yl)methyl)phenyl)-2-propylthiazol-5-yl)sulfonyl)carbamate] | – | 0.039 | >60
CCCCOC(=O)NS(=O)(=O)c1sc(CC(C)C)nc1-c1ccc(Cn2ccnc2-c2nccs2)cc1 [Example 16, Butyl ((2-isobutyl-4-(4-((2-(thiazol-2-yl)-1H-imidazol-1-yl)methyl)phenyl)thiazol-5-yl)su Ifonyl)carbamate] | 1 | 0.041 | >60
CCCCOC(=O)NS(=O)(=O)c1sc(CC(C)C)nc1-c1ccc(Cn2ccnc2C(C)(C)O)cc1 [Example 17A, Butyl ((4-(4-((2-(2-hydroxypropan-2-yl)-1H-imidazol-1-yl)methyl)phenyl)-2-isobutylthiazol-5-yl)sulfonyl)carbamate] | 1 | 0.012 | >60
CCCCOC(=O)NS(=O)(=O)c1sc(CC(C)C)nc1-c1ccc(Cn2ccnc2C(C)C)cc1 [Example 18, Butyl ((2-isobutyl-4-(4-((2-isopropyl-1H-imidazol-1-yl)methyl)phenyl)thiazol-5-yl)sulfonyl)carbamate] | 1 | 0.0058 | >60
COC(=O)NS(=O)(=O)c1sc(CC(C)C)nc1-c1ccc(Cn2ccnc2C(C)C)cc1 [Example 20, Methyl ((2-isobutyl-4-(4-((2-isopropyl-1H-imidazol-1-yl)methyl)phenyl)thiazol-5-yl)sulfonyl)carbamate] | – | 0.027 | >60
CCCCOC(=O)NS(=O)(=O)c1sc(CCC)nc1-c1ccc(Cn2ccnc2-c2nccs2)cc1 [Example 21, Butyl ((2-propyl-4-(4-((2-(thiazol-2-yl)-1H-imidazol-1-yl)methyl)phenyl)thiazol-5-yl)sulfonyl)carbamate] | 1 | 0.35 | –
COC(=O)NS(=O)(=O)c1sc(CC(C)C)nc1-c1ccc(Cn2ccnc2C(C)O)cc1 (stereo not drawn) [Example 23, Methyl ((4-(4-((2-(1-hydroxyethyl)-1H-imidazol-1-yl)methyl)phenyl)-2-isobutylthiazol-5-yl)sulfonyl)carbamate] | – | – | >60
COC(=O)NS(=O)(=O)c1sc(CC(C)C)nc1-c1ccc(Cn2ccnc2C2CC2)cc1 [Example 26, Methyl ((4-(4-((2-cyclopropyl-1H-imidazol-1-yl)methyl)phenyl)-2-isobutylthiazol-5-yl)sulfonyl)carbamate] | 13 | 0.099 | –
CCCCOC(=O)NS(=O)(=O)c1sc(CC(C)C)nc1-c1ccc(Cn2ccnc2C2CC2)cc1 [Example 27, Butyl ((4-(4-((2-cyclopropyl-1H-imidazol-1-yl)methyl)phenyl)-2-isobutylthiazol-5-yl)sulfonyl)carbamate] | 8 | 0.011 | –
CCCc1nc(-c2ccc(Cn3ccnc3C3CC3)cc2)c(S(=O)(=O)NC(=O)OC)s1 [Example 28, Methyl ((4-(4-((2-cyclopropyl-1H-imidazol-1-yl)methyl)phenyl)-2-propylthiazol-5-yl)sulfonyl)carbamate] | 20 | 0.274 | –
CCCCOC(=O)NS(=O)(=O)c1sc(CCC)nc1-c1ccc(Cn2ccnc2C2CC2)cc1 [Example 29, Butyl ((4-(4-((2-cyclopropyl-1H-imidazol-1-yl)methyl)phenyl)-2-propylthiazol-5-yl)sulfonyl)carbamate] | 15 | 0.036 | –
CCCc1ccc(S(=O)(=O)[N-]C(=O)OC)c(-c2ccc(Cn3ccnc3C(C)(C)O)cc2)c1.[K+] [Example 30B, Potassium (methoxycarbonyl) ((4′-((2-(2-hydroxypropan-2-yl)-1H-imidazol-1-yl)methyl)-5-propyl-[1,1′-biphenyl]-2-yl)sulfonyl)amide] | 1 | 0.0046 | >60
CCCCOC(=O)[N-]S(=O)(=O)c1ccc(CCC)cc1-c1ccc(Cn2ccnc2C(C)(C)O)cc1.[K+] [Example 31B, Potassium (butoxycarbonyl) ((4′-((2-(2-hydroxypropan-2-yl)-1H-imidazol-1-yl)methyl)-5-propyl-[1,1′-biphenyl]-2-yl)sulfonyl)amide] | – | – | 20
CCCCOC(=O)NS(=O)(=O)c1ccc(CC(C)C)cc1-c1ccc(Cn2ccnc2-c2nccs2)cc1 [Example 35B, Potassium (butoxycarbonyl) ((5-isobutyl-4′-((2-(thiazol-2-yl)-1H-imidazolyl)methyl)-[1,1′-biphenyl]-2-yl)sulfonyl)amide] | 7 | 0.0067 | –
